In patent US20220226342A1, “COMPOSITIONS AND METHODS OF TREATING LIVER CANCERS” (The Johns Hopkins University, priority 2019, published 2022):

Assays:
[1] = system: PDX50; experiment: HCC patient derived xenograft model PDX50
From the text: P<0.001. Error bars represent Mean±standard deviation. Not significant (NS).
The second model, PDX50, was established by directly implanting pieces of the fresh human HCC tumor into NSG mice. After initial implantation, PDX50 is perpetuated similarly to PDX26-3. […] PDX50 is less aggressive—mice continue to be active, to eat and function normally, in spite of very large tumors. Therefore, PDX50 is not ideal for survival determinations.

[2] = system: 6 HCC PDO lines; experiment: FACS analysis of Ki67 protein; format: cell-based, human; details: all 6 HCC PDO lines tested
Procedure: FIG. 4A-4D. Proliferation assay of HCC PDOs treated with omacetaxine in vitro. […] (4B and 4D).Ki67 expression from 6 HCC PDO lines treated with omacetaxine were analyzed with flow cytometry. […] The effects on proliferation were assessed to elucidate the omacetaxine mechanisms of action. […] To further understand the effects of omacetaxine on cancer cell proliferation and cell cycle, the inventors performed FACS analysis of Ki67 protein. Ki-67 is a nuclear protein expressed in proliferating cells (in all phases of the cell cycle except G0)^22,23. Furthermore, the higher expression of Ki67 has been linked to poorer disease free survival and overall survival in HCC^24. […] As caspase 3 is a key molecule in apoptosis, the inventors measured its activated (cleaved) fragment.

[3] = system: Cyclin D1; experiment: oncoprotein level by FACS at 96 h in 6 HCC PDO lines; format: cell-based, human
From the text: (§1) FIG. 3A-3H. Mechanism of Omacetaxine action on different HCC patient derived organoids lines. (3A). […] (3B). […] (3C) The mean fluorescence intensity ratio reflected protein synthesis rate of the plots data in (a). (3D-3H).
(§2) Select oncoproteins, such as MYC, beta-catenin, Cyclin D1, XIAP and MET are short half-life proteins^20, 26, 27.

[4] = system: XIAP; experiment: as above; format: cell-based, human
From the text: as §1, §2

[5] = system: MYC; experiment: as above; format: cell-based, human
From the text: as §1, §2

[6] = system: MET; experiment: as above; format: cell-based, human
From the text: as §1, §2

[7] = system: beta-catenin; experiment: as above; format: cell-based, human
From the text: as §1, §2

[8] = system: PDX26-3
Procedure: FIG. 7A-7I. […] Significance was determined with log rank test. […] Error bars represent Mean±standard deviation. […] (7J).
Patient derived xenograft (PDX) models of human cancer are well documented to recapitulate primary tumor biology, as well as response to treatment^28, 29. Two PDX models from HCC patients were established in the inventors' lab with the purpose of creating a platform for further validation of drug leads. The first model, PDX26-3, was established by subcutaneous injection of HCC PDO cells into NOD SCID-IL2R-γ chain-deficient mice (NSG, Jackson Lab). More specifically, PDX26-3 is established from PDO26-3 cells at passage 3. After the initial PDX establishment, the model is perpetuated by implantation of pieces of tumors from current generation PDX mice into the next (as described in Materials and Methods).

[9] = system: global protein synthesis in 6 HCC PDOs; experiment: OP-Puro incorporation assay (EZClick Global Protein Synthesis Assay); format: cell-based, human
From the text: as §1

Structure (SMILES): COC(=O)C[C@](O)(CCCC(C)(C)O)C(=O)O[C@@H]1C(OC)=C[C@]23CCCN2CCc2cc4c(cc2[C@H]13)OCO4 [omacetaxine, omacetaxine mepusuccinate]
- body mass of mice, treatment vs. control group [1]: no difference in the body mass
- tumor growth ([1]; PDX50 mice, treatment applied directly into the tumor): halting of tumor growth
- expression of Ki67 [2]: reduces the expression of Ki67
- Cyclin D1 level [3]: inhibited
- XIAP level [4]: inhibited
- MYC level [5]: inhibited
- MET level [6]: inhibited
- beta-catenin level [7]: inhibited
- size of the tumors at the end of the treatment ([8]; PDX26-3, day 30, vs control): statistically significant difference
- weight of the tumors at the end of the treatment ([8]; PDX26-3, day 30, vs control): statistically significant difference
- increase in survival ([8]; PDX26-3 mice, statistically significant): approximately 100%
- tumor growth ([8]; PDX26-3 mice, treatment applied directly into the tumor): halting of tumor growth
- body mass of mice, treatment vs. control group ([8]; mouse, in vivo): no difference in the body mass
- global protein synthesis ([9]; 150 nM and 700 nM, 6 HCC PDOs, 36 h): drastically inhibited global protein synthesis
- protein synthesis inhibition at 700 nM compared with 150 nM ([9]; 700 nM vs 150 nM): did not induce any further inhibition of protein synthesis
